Test results taken from patent US4230698A, “2-Substituted arabinofuranosyl nucleosides and nucleotides” (Research Corporation, priority 1978, dated 1980).

Key:
[1] = tested on: Herpes Simplex type I virus; assay: In vitro antiviral testing, plaque reduction, Herpes Simplex type I; type: cell-based; details: for antiviral properties: plaque reduction
Text: (§1) Cytarazid and cytaramin, when tested in vitro against Herpes Simplex types I and II viruses, utilizing the plaque reduction technique described by Dulbecco, Proceedings National Academy of Sciences, vol. 38, p.

[2] = tested on: HeLa; assay: In vitro cytotoxicity testing (growth inhibition, Trypan Blue exclusion), HeLa; type: cell-based; details: Homo sapiens, 40 hr, 37 degrees C, read-out: Concentration for 50% Inhibition of Growth
Description: (§2) Cytarazid, the β-anomer of the nucleoside prepared in Example 3 herein, and cytaramin, the nucleoside prepared in Example 4 herein, are evaluated in vitro for growth inhibiting potency against mammalian cancer cells by a micro technique, using the culture conditions described by Bobek et al. in J. Med. Chem., vol. 20, p. 458 (1977), whereby 0.5 ml. aliquots of medium (RPMI 1640.div.10% fetal calf serum) containing the test compound are introduced into 16×125 mm. screw cap culture tubes, followed by 0.5 ml. portions of the medium containing 1×10^5 mammalian cancer cells. The cultures are incubated at 37 degrees C. for 40 hr., after which time the viable cells are counted by Trypan Blue exclusion. During this time the cell number in the controls increases about four to nine-fold with an average cell viability of 99%. The test results are as follows:
(§3) Concentration for 50% Inhibition of Growth
(§4) Cell Line Cytarazid Cytaramin

[3] = tested on: Herpes Simplex type II virus; assay: In vitro antiviral testing, plaque reduction, Herpes Simplex type II; type: cell-based; details: for antiviral properties: plaque reduction
Text: as §1

[4] = tested on: L-1210; assay: In vitro cytotoxicity testing (growth inhibition, Trypan Blue exclusion), L-1210; type: cell-based; details: Mus musculus, L1210, 40 hr, 37 degrees C, read-out: Concentration for 50% Inhibition of Growth
Description: as §2, §3, §4

[5] = tested on: CR-CdR deaminase; assay: in vitro
Description: (§5) Partially purified CR-CdR deaminase is prepared from two different sources: (1) human liver, following the procedure of Wentworth and Wolfender, Biochemistry, vol. 14, p. 5099 (1975), and (2) blast cells of patients with acute myelocytic leukemia, using ammonium sulfate fractionation and DEAE column chromatography. The assay procedure is described by Wentworth and Wolfander, ibid.

[6] = tested on: L-1210 leukemic cells; assay: In vivo cytotoxicity testing, survival of mice inoculated with L-1210 leukemic cells; set-up: species or system DBA/2 HaDD mice; details: control 8.7 days
Description: Cytarazid and cytaramin are evaluated in vivo for growth inhibitory potency against leukemic cells by intraperitoneally inoculating DBA/2 HaDD mice with an IP-PBS saline suspension of 1×10^6 L-1210 leukemic cells, waiting 24 hrs., and then administering the test compound intraperitoneally in 0.2 ml. of saline-phospate buffer solution (pH 7.0).

[7] = in vitro; details: human, cr-cdr deaminase
Description: as §5

[8] = tested on: Molt 4F (T-type from lymphoblastic leukemia); assay: In vitro cytotoxicity testing (growth inhibition, Trypan Blue exclusion), Molt 4F; type: cell-based; details: Homo sapiens, 40 hr, 37 degrees C, read-out: Concentration for 50% Inhibition of Growth
Description: as §2, §3, §4

[9] = 50 μM, read-out: inhibition of the virus (log)

Compound | antiviral properties [1] | IC50 [2] [nM] | antiviral properties [3] | IC50 [4] [nM] | deamination detected in 8 hrs [5] | Survival Time ([6]; 75 mg/kg IP twice per day 8 hrs apart for 2 days beginning 24 hrs after tumor inoculation) [days] | half-life [7] [min] | inhibition at 50 µM ([1]; 50 μM) [%] | log reduction at 50 µM [1, 9] | IC50 [8] [nM] | inhibition at 50 µM ([3]; 50 μM) [%] | log reduction at 50 µM [3, 9] | Survival Time ([6]; 40 mg/kg IP twice per day 8 hrs apart for 2 days beginning 24 hrs after tumor inoculation) [days]
Nc1ccn([C@@H]2O[C@H](CO)[C@@H](O)[C@@H]2N)c(=O)n1 [Cytaramin, 1-(2-amino-2-deoxy-β-D-arabinofuranosyl) cytosine] | significant antiviral properties | 30000 | significant antiviral properties | 4000 | no significant deamination | > 120 | – | – | – | – | – | – | –
Nc1ccn([C@@H]2O[C@H](CO)[C@@H](O)[C@@H]2O)c(=O)n1 [cytarabine, reference compound] | – | – | – | – | – | – | 45 | – | – | – | – | – | –
[N-]=[N+]=N[C@H]1[C@H](O)[C@@H](CO)O[C@H]1n1ccc(N)nc1=O [Cytarazid, 1-(2-azido-2-deoxy-β-D-arabinofuranosyl) cytosine] | significant antiviral properties | 200 | significant antiviral properties | 600 | no significant deamination | – | – | > 99.9 | > 3 | 70 | > 99 | > 2 | > 120
